The source of these data is ChEMBL document CHEMBL4699503, “Structural basis for producing selective MAP2K7 inhibitors” (Bioorg Med Chem Lett, 2020).

Broadly, the IC50 is the concentration that inhibits the measured activity by half.

The target in this assay is T1, Dual specificity mitogen-activated protein kinase kinase 7 (Homo sapiens, UniProt O14733).
T1 sequence (O14733 whole entry): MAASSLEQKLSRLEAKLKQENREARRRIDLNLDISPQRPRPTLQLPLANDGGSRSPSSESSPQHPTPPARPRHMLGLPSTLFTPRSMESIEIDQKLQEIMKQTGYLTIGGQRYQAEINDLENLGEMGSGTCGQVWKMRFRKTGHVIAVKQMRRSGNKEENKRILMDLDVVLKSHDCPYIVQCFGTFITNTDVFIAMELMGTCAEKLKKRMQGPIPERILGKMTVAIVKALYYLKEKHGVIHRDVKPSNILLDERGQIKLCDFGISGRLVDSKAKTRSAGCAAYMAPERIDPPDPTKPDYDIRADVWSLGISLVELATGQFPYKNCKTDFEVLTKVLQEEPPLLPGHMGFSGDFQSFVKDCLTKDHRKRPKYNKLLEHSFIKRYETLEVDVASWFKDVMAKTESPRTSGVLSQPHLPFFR
The assay is described as follows: Inhibition of MAP2K7 (unknown origin) using JNK peptide KFMMTPYVVTR incubated for 30 mins measured by multimode reader based ADP-glo assay. (ADP-Glo turns the ADP formed in a reaction into a luminescent signal.)

`C#CCNC(=O)c1cc(NC(=O)C=C)cc(-c2n[nH]c3ccccc23)c1` yielded an IC50 of 6.5 nM.
